{"source": "ChEMBL document CHEMBL4602617", "about": "“Discovery and optimization of heteroaryl piperazines as potent and selective PI3Kδ inhibitors” (Bioorg Med Chem Lett, 2020)", "key": {"[1]": {"target": "Epidermal growth factor receptor (Homo sapiens, UniProt P00533, L858R/T790M)", "experiment": "Inhibition of human recombinant GST-tagged EGFR L858R/T790M mutant expressed in baculovirus expression system using tyrosine 4 peptide as substrate after 60 mins in presence of ATP FRET based Z'-LYTE assay"}, "[2]": {"target": "Melanocortin receptor 5 (Homo sapiens) (UniProt P33032)", "sequence (P33032 whole entry)": "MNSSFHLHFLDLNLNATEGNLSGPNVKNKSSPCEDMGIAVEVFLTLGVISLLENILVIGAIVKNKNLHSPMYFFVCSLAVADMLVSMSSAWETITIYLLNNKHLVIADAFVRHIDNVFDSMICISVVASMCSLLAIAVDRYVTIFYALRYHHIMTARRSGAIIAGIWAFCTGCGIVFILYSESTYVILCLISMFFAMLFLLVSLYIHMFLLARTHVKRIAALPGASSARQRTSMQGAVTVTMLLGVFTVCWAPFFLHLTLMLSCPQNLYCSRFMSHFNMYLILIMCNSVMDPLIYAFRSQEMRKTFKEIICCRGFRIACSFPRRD", "experiment": "Displacement of [125I]NDP-alpha-MSH from full length human recombinant MC5 receptor expressed in HEK293 cells at 10 uM measured after 120 mins by radiometric scintillation analysis relative to control", "type": "cell-based"}, "[3]": {"target": "Mitogen-activated protein kinase 13 (Homo sapiens, UniProt O15264)", "experiment": "Inhibition of recombinant full length human His-tagged p38delta expressed in baculovirus expression system using serine/threonine-3 peptide as substrate incubated for 60 mins in presence of ATP by Z'-LYTE assay"}, "Homo sapiens [4]": {"organism": "Homo sapiens", "experiment": "Inhibition of recombinant human PKA expressed in Escherichia coli at 10 uM using peptide as substrate after 15 mins by radiometric scintillation analysis relative to control"}, "Caspase-3 (Homo sapiens)": {"target": "Caspase-3 (Homo sapiens) (UniProt P42574)", "sequence (P42574 29-175 limits assumed)": "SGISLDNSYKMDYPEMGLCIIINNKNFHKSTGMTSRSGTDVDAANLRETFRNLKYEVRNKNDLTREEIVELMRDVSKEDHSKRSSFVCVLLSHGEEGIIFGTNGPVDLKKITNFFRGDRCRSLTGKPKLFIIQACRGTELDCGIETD", "sequence (P42574 176-277 limits assumed)": "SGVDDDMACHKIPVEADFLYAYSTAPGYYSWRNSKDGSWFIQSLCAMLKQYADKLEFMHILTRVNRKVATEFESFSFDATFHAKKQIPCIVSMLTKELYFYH", "experiment": "Inhibition of recombinant full-length human caspase 3 expressed in Escherichia coli at 10 uM using Ac-DEVD-AMC as substrate after 60 mins by spectrophotometric analysis relative to control"}, "[5]": {"target": "Tyrosine-protein kinase JAK3 (Homo sapiens, UniProt P52333)", "experiment": "Inhibition of recombinant human GST-tagged JAK3 catalytic domain (781 to 1124 residues) expressed in baculovirus expression system using tyrosine-6 peptide as substrate incubated for 60 mins in presence of ATP by Z'-LYTE assay"}, "[6]": {"target": "Mitogen-activated protein kinase kinase kinase kinase 5 (Homo sapiens, UniProt Q9Y4K4)", "experiment": "Inhibition of recombinant full length human GST-tagged KHS1 expressed in baculovirus expression system using serine/threonine-7 peptide as substrate incubated for 60 mins in presence of ATP by Z'-LYTE assay"}, "[7]": {"target": "Prostacyclin receptor (Homo sapiens) (UniProt P43119)", "experiment": "Inhibition of human prostanoid IP receptor at 10 uM relative to control"}, "[8]": {"target": "Serine/threonine-protein kinase 25 (Homo sapiens, UniProt O00506)", "experiment": "Inhibition of recombinant full length human GST-tagged YSK1 expressed in baculovirus expression system using serine/threonine-7 peptide as substrate incubated for 60 mins in presence of ATP by Z'-LYTE assay"}, "[9]": {"target": "Casein kinase I isoform gamma-2 (Homo sapiens, UniProt P78368)", "sequence (P78368 whole entry, canonical isoform)": "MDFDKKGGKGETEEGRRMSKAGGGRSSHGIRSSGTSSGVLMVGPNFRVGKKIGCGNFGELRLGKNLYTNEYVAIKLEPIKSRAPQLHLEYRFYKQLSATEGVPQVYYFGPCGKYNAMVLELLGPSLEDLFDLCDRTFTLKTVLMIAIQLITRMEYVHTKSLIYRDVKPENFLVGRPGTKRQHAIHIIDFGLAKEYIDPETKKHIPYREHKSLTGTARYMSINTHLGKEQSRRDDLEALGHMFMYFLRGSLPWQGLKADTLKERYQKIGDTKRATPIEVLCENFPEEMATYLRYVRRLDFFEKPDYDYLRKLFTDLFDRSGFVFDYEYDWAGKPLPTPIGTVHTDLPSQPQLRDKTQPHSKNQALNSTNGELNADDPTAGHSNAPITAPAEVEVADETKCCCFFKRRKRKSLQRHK", "experiment": "Inhibition of recombinant human full-length His-tagged CSNK1G2 expressed in baculovirus expression system using FRET-labeled Ser/Thr 05 peptide as substrate measured after 1 hr in presence of ATP by Z'-lyte assay"}, "Sphingosine kinase 2": {"target": "Sphingosine kinase 2 (Homo sapiens, UniProt Q9NRA0)", "experiment": "Inhibition of recombinant full length GST-tagged human SPHK2 expressed in baculovirus expression system using Sphingosine lipid as substrate in presence of ATP after 1 hr by Adapta assay"}, "SRSF protein kinase 3": {"target": "SRSF protein kinase 3 (Homo sapiens, UniProt Q9UPE1)", "sequence (Q9UPE1 whole entry)": "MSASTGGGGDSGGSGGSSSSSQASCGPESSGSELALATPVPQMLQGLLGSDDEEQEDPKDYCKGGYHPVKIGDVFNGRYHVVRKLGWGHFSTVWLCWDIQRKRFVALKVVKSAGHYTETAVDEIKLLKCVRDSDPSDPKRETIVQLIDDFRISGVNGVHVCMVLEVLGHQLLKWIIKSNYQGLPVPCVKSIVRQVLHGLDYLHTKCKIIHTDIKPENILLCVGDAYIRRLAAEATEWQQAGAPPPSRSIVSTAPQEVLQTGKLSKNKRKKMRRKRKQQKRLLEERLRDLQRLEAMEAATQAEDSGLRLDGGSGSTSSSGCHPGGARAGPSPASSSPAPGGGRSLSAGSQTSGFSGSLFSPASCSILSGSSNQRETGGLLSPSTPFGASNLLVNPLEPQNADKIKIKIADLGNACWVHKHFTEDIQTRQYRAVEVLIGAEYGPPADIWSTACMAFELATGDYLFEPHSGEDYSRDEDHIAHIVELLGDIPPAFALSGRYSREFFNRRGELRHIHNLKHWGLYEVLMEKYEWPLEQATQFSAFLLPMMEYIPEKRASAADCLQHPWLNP", "experiment": "Inhibition of recombinant full length human GST-tagged MSSK1 expressed in baculovirus expression system using serine/threonine-18 peptide as substrate incubated for 60 mins in presence of ATP by Z'-LYTE assay"}, "[10]": {"experiment": "Unbound clearance in rat at 0.5 mg/kg, iv or 1 mg/kg, po", "type": "ADME, organism-based", "conditions": "in vivo"}, "[11]": {"target": "Vascular endothelial growth factor receptor 1 (Homo sapiens, UniProt P17948)", "sequence (P17948 whole entry, the tested form may be a part)": "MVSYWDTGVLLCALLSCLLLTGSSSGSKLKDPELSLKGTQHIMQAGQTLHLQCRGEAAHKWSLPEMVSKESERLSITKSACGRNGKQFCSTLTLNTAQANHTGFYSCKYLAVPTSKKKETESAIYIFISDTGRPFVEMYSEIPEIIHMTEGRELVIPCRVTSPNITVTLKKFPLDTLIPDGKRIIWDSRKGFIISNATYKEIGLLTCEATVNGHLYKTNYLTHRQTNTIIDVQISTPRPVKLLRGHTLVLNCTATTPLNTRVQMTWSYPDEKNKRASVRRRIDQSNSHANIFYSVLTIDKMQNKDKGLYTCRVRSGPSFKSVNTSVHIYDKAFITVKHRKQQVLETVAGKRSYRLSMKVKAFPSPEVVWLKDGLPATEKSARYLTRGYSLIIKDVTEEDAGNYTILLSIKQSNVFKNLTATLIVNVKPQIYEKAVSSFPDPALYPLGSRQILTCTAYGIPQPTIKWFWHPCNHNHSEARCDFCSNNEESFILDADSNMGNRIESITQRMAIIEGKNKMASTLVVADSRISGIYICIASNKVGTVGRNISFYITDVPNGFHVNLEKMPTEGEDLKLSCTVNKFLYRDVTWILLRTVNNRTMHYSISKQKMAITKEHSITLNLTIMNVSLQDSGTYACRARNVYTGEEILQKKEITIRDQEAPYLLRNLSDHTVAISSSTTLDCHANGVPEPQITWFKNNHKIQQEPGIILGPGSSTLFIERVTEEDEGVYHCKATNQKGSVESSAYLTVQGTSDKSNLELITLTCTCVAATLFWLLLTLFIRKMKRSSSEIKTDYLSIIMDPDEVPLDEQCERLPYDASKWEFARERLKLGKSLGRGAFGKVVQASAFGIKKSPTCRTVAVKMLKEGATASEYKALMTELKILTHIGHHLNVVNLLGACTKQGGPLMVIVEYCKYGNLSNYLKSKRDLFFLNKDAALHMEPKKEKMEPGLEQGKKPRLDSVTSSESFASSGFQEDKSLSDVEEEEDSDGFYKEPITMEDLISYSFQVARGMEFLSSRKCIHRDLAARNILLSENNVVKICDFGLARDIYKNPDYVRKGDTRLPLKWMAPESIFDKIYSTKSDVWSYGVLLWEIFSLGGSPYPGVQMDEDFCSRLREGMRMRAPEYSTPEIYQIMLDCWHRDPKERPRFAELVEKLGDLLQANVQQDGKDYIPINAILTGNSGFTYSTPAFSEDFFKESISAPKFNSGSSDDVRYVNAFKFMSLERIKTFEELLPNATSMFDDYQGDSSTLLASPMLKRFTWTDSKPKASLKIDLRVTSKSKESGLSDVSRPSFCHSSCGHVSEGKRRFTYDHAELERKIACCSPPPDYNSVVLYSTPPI", "experiment": "Inhibition of recombinant human GST-tagged FLT1 catalytic domain (781 to 1338 residues) expressed in baculovirus expression system using tyrosine-4 peptide as substrate incubated for 60 mins in presence of ATP by Z'-LYTE assay"}, "[12]": {"target": "Tyrosine-protein kinase Lyn (Homo sapiens, UniProt P07948)", "sequence (P07948 whole entry)": "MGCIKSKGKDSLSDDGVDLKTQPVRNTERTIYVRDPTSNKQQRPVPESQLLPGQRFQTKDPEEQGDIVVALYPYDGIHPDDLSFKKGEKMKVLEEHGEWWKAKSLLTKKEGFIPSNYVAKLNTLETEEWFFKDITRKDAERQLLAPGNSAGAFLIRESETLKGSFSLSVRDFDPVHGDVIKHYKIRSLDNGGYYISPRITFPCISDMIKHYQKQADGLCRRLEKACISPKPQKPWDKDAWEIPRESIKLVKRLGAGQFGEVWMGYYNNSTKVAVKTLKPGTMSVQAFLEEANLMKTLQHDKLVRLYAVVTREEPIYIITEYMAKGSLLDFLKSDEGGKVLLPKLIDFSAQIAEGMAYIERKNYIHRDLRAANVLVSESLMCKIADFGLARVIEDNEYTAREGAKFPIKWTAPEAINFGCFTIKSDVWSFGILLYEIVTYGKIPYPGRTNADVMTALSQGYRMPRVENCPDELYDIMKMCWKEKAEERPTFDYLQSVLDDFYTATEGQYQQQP", "experiment": "Inhibition of recombinant full length human GST-tagged LYN-A expressed in insect cells using tyrosine-2 peptide as substrate incubated for 60 mins in presence of ATP by Z'-LYTE assay"}, "[13]": {"target": "Serine/threonine-protein kinase pim-2 (Homo sapiens, UniProt Q9P1W9)", "experiment": "Inhibition of recombinant full length GST-tagged human PIM2 expressed in baculovirus expression system using Ser/Thr 07 as substrate after 1 hr in presence of ATP by Z'-LYTE assay"}, "[14]": {"experiment": "Clearance in rat plasma at 0.5 mg/kg, iv or 1 mg/kg, po", "type": "ADME, organism-based"}, "[15]": {"target": "Muscarinic acetylcholine receptor M3 (Homo sapiens) (UniProt P20309)", "experiment": "Displacement of [3H]N-Methylscopolamine from full length human recombinant Muscarinic M3 receptor expressed in CHOK1 cells at 10 uM measured after 120 mins by radiometric scintillation analysis relative to control", "type": "cell-based", "conditions": "CHO-K1"}, "[16]": {"target": "Sodium-dependent noradrenaline transporter (Homo sapiens) (UniProt P23975)", "sequence (P23975 whole entry)": "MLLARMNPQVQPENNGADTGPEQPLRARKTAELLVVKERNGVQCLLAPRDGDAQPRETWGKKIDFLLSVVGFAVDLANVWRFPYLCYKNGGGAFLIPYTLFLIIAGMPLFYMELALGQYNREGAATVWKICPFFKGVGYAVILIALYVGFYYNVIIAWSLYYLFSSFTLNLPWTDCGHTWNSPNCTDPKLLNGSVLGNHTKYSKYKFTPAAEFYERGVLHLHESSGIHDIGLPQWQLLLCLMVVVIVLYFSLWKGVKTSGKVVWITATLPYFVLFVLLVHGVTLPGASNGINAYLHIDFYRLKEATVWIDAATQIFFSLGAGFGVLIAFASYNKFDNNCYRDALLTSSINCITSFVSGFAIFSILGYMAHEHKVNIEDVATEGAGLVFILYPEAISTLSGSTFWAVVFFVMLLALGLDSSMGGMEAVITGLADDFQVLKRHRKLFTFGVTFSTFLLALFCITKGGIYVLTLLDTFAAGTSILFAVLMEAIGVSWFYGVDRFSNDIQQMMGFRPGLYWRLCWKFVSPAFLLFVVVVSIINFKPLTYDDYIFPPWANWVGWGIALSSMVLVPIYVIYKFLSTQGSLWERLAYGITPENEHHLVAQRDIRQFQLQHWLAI", "experiment": "Displacement of [125I]RTI-55 from full length recombinant human NET expressed in MDCK cells at 10 uM after 3 hrs by radiometric scintillation analysis relative to control", "type": "cell-based"}, "Homo sapiens [17]": {"organism": "Homo sapiens", "experiment": "Selectivity index, ratio IC50 for inhibition of recombinant human N-terminal His6-tagged full-length p120gamma expressed in Sf21 insect cells to ratio IC50 for inhibition of recombinant human full-length N-terminal GST-tagged p110delta/untagged full-length p85alpha expressed in baculovirus infected Sf21 cells"}, "[18]": {"target": "Cyclin-dependent kinase 5/CDK5 activator 1 (Homo sapiens, UniProt Q00535)", "sequence (Q00535 whole entry)": "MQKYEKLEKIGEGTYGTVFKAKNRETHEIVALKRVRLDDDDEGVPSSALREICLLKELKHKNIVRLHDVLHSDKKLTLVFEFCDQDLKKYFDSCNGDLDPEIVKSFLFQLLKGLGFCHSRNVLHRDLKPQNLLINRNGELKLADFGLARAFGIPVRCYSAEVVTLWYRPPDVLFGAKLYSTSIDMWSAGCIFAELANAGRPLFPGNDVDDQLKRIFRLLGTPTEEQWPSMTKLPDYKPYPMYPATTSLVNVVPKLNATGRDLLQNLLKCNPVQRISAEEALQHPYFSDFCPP", "sequence (Q15078 whole entry, further chain)": "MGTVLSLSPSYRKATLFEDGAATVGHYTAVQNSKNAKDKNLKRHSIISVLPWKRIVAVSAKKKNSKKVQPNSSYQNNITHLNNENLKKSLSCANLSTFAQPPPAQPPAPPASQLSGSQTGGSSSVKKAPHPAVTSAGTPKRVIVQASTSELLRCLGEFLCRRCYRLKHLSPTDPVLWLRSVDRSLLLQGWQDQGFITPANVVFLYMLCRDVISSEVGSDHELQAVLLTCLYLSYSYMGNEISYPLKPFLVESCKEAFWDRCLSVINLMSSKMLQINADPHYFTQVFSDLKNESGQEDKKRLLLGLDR", "experiment": "Inhibition of recombinant full length human His-tagged CDK5/p35 expressed in baculovirus expression system using serine/threonine-12 peptide as substrate incubated for 60 mins in presence of ATP by Z'-LYTE assay"}, "[19]": {"target": "Platelet-derived growth factor receptor alpha (Homo sapiens, UniProt P16234)", "experiment": "Inhibition of recombinant human GST-tagged PDGFRalpha cytoplasmic domain (550 to 1089 residues) expressed in baculovirus expression system using tyrosine-4 peptide as substrate incubated for 60 mins in presence of ATP by Z'-LYTE assay"}, "Rattus norvegicus": {"organism": "Rattus norvegicus", "experiment": "Inhibition of rat kainate receptor at 10 uM relative to control"}, "[20]": {"target": "Mitogen-activated protein kinase 10 (Homo sapiens, UniProt P53779)", "experiment": "Inhibition of recombinant full length N-terminal GST-tagged human JNK3 expressed in baculovirus expression system using Ser/Thr-04 peptide as substrate after 1 hr in presence of ATP by Z'LYTE assay"}, "[21]": {"target": "NT-3 growth factor receptor (Homo sapiens, UniProt Q16288)", "experiment": "Inhibition of recombinant human His-tagged TrkC cytoplasmic domain (510 to 825 residues) expressed in baculovirus using tyr 01 as substrate incubated for 1 hr in presence of ATP by Z'-Lyte assay"}, "[22]": {"target": "Casein kinase I isoform alpha (Homo sapiens, UniProt P48729)", "sequence (P48729 whole entry, canonical isoform)": "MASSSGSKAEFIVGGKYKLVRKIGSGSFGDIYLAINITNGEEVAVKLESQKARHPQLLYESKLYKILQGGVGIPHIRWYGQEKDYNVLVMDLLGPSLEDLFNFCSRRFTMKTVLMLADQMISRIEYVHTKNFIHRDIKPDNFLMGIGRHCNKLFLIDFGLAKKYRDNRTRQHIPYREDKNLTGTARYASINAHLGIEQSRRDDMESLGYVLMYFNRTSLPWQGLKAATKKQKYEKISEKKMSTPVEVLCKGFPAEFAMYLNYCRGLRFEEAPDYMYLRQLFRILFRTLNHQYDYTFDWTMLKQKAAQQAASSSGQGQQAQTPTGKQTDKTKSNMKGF", "experiment": "Inhibition of recombinant full length human GST-tagged CSNK1A1 expressed in baculovirus expression system using fluorophore-labeled serine/threonine-11 peptide as substrate incubated for 60 mins in presence of ATP by Z'-LYTE assay"}, "[23]": {"target": "Protein-tyrosine kinase 2-beta (Homo sapiens, UniProt Q14289)", "experiment": "Inhibition of recombinant full length human N-terminal GST-tagged PTK2B cytoplasmic domain expressed in baculovirus expression system using tyr01 peptide as substrate incubated for 60 mins in presence of ATP by Z'-LYTE assay"}}, "data": [{"compound": "C[C@@H]1C[C@H]1C(=O)N1CCN(c2cnc(C#N)c(-c3cnn(C)c3)n2)C[C@H]1C", "values": [{"measurement": "IC50", "setting": "[1]", "value": "> 100", "unit": "µM"}, {"measurement": "inhibition", "setting": "[2]", "value": 22, "unit": "%"}, {"measurement": "IC50", "setting": "[3]", "value": "> 100", "unit": "µM"}, {"measurement": "inhibition", "setting": "Homo sapiens [4]", "value": -3, "unit": "%"}, {"measurement": "inhibition", "setting": "Caspase-3 (Homo sapiens)", "value": 0, "unit": "%"}, {"measurement": "IC50", "setting": "[5]", "value": 13.7, "unit": "µM"}, {"measurement": "IC50", "setting": "[6]", "value": 30.4, "unit": "µM"}, {"measurement": "inhibition", "setting": "[7]", "value": -1, "unit": "%"}, {"measurement": "IC50", "setting": "[8]", "value": "> 100", "unit": "µM"}, {"measurement": "IC50", "setting": "[9]", "value": "> 100", "unit": "µM"}, {"measurement": "IC50", "setting": "Sphingosine kinase 2", "value": "> 100", "unit": "µM"}, {"measurement": "IC50", "setting": "SRSF protein kinase 3", "value": "> 100", "unit": "µM"}, {"measurement": "CL free", "setting": "[10]", "value": 187, "unit": "mL/min/kg"}, {"measurement": "IC50", "setting": "[11]", "value": "> 100", "unit": "µM"}, {"measurement": "IC50", "setting": "[12]", "value": "> 100", "unit": "µM"}, {"measurement": "IC50", "setting": "[13]", "value": "> 100", "unit": "µM"}, {"measurement": "clearance", "setting": "[14]", "value": 28.5, "unit": "mL/min/kg"}, {"measurement": "inhibition", "setting": "[15]", "value": 0, "unit": "%"}, {"measurement": "inhibition", "setting": "[16]", "value": 3, "unit": "%"}, {"measurement": "Ratio IC50", "setting": "Homo sapiens [17]", "value": 847}, {"measurement": "IC50", "setting": "[18]", "value": "> 100", "unit": "µM"}, {"measurement": "IC50", "setting": "[19]", "value": "> 100", "unit": "µM"}, {"measurement": "inhibition", "setting": "Rattus norvegicus", "value": 14, "unit": "%"}, {"measurement": "IC50", "setting": "[20]", "value": 5.37, "unit": "µM"}, {"measurement": "IC50", "setting": "[21]", "value": "> 100", "unit": "µM"}, {"measurement": "IC50", "setting": "[22]", "value": "> 100", "unit": "µM"}, {"measurement": "IC50", "setting": "[23]", "value": "> 100", "unit": "µM"}]}]}
